For orientation: IC50 means the midpoint of a concentration-inhibition curve. Read a high IC50 as weaker potency in that assay.

The record followed here is US9351965B2, “Indazole derivatives useful as ERK inhibitors” (Merck Sharp & Dohme Corp., priority 2010, dated 2016).

SMILES strings stand for the structures.

fully phosphorylated, active Mouse ERK2 protein, sequence (P63085 whole entry): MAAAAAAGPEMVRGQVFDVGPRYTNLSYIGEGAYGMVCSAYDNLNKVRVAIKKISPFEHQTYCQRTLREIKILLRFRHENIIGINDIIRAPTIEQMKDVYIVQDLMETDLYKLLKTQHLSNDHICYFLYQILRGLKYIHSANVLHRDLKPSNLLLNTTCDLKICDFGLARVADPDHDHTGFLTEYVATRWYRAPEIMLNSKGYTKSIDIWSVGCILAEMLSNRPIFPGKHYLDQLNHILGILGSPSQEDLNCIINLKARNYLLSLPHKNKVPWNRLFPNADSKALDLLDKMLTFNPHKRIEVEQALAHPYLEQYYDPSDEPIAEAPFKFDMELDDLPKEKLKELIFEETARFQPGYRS

The experiment has as its target fully phosphorylated, active Mouse ERK2 protein (Mus musculus (Mouse), UniProt P63085). Kind of experiment: Active ERK2 (aERK) IMAP assay. It is filed as biochemical. To be noted: IMAP fluorescence polarization; 30 μM ATP; 30 minute pre-incubation. In general terms: Polarisation of emitted light reports the rotation of a fluorescent probe.
The compound `Cc1cc(-c2n[nH]c3ccc(C(=O)N[C@H]4CCC[C@@](O)(Cn5cc6ccc(C(F)(F)F)cc6n5)C4)cc23)ccn1` (relative stereo) [compound 105, N-[trans-3-hydroxy-3-[[6-(trifluoromethyl)-2H-indazol-2-yl]methyl]cyclohexyl]-3-(2-methyl-4-pyridinyl)-1H-indazole-5-carboxamide] gave an IC50 of 1 µM. `Cc1cc(-c2n[nH]c3ccc(C(=O)N[C@H]4CCC[C@@](O)(Cn5ncc6c(F)cccc65)C4)cc23)ccn1` (relative stereo) [compound 96, N-[trans-3-[(4-fluoro-1H-indazol-1-yl)methyl]-3-hydroxycyclohexyl]-3-(2-methyl-4-pyridinyl)-1H-indazole-5-carboxamide] returned a half-inhibitory concentration (IC50) of 0.577 µM.

As for `Cc1cc(-c2n[nH]c3ccc(C(=O)NC4CCCC(O)(Cc5c(F)cccc5F)C4)cc23)ccn1` (single isomer, unassigned) [compound 5, N-[3-[(2,6-difluorophenyl)methyl]-3-hydroxycyclohexyl]-3-(2-methyl-4-pyridinyl)-1H-indazole-5-carboxamide], the half-maximal inhibitory concentration (IC50) was found to be 1 µM. In turn, `O=C(NC1CCCC(O)(Cc2ccccc2F)C1)c1ccc2[nH]nc(-c3ccc4ncsc4c3)c2c1` (single isomer, unassigned) [compound 11, 3-(6-benzothiazolyl)-N-[3-[(2-fluorophenyl)methyl]-3-hydroxycyclohexyl]-1H-indazole-5-carboxamide] had an IC50 of 0.264 µM. `Cc1cc(-c2n[nH]c3ccc(C(=O)N[C@@H]4CCC[C@@](O)(Cn5cc6cccnc6n5)C4)cc23)ccn1` (relative stereo) [compound 78, N-[cis-3-hydroxy-3-(2H-pyrazolo[3,4-b]pyridin-2-ylmethyl)cyclohexyl]-3-(2-methyl-4-pyridinyl)-1H-indazole-5-carboxamide]: the IC50 was 0.591 µM. Consider `Cc1cc(-c2n[nH]c3ccc(C(=O)NC4CCCC(O)(Cc5ccccc5F)C4)cc23)ccn1` (single isomer, unassigned) [compound 2, N-[3-[(2-fluorophenyl)methyl]-3-hydroxycyclo-hexyl]-3-(2-methyl-4-pyridinyl)-1H-indazole-5-carboxamide], for which the IC50 came to 0.0208 µM.

For `Cc1cc(-c2n[nH]c3ccc(C(=O)N[C@H]4CCC[C@](O)(Cn5ncc6ccc(F)cc65)C4)cc23)ccn1` (relative stereo) [compound 107, N-[cis-3-[(6-fluoro-1H-indazol-1-yl)methyl]-3-hydroxycyclohexyl]-3-(2-methyl-4-pyridinyl)-1H-indazole-5-carboxamide], the IC50 worked out at 0.362 µM. For `Cc1cc(-c2n[nH]c3ccc(C(=O)N[C@@H]4CCC[C@](O)(Cn5c(C)nc6cnccc65)C4)cc23)ccn1` (relative stereo) [compound 76, N-[trans-3-hydroxy-3-[(2-methyl-1H-imidazo[4,5-c]pyridin-1-yl)methyl]cyclohexyl]-3-(2-methyl-4-pyridinyl)-1H-indazole-5-carboxamide] the value was 0.136 µM; for `Cc1cc(-c2n[nH]c3ccc(C(=O)NC4CCCC(Oc5ccc(F)cc5F)C4)cc23)ccn1` (single isomer, unassigned) [compound 37, N-[3-(2,4-difluorophenoxy)cyclohexyl]-3-(2-methyl-4-pyridinyl)-1H-indazole-5-carboxamide], 0.128 µM. Take `Cc1cc(-c2n[nH]c3ccc(C(=O)N[C@@H]4CCC[C@@](O)(Cn5c(=O)ccc6ccccc65)C4)cc23)ccn1` (relative stereo) [compound 93, N-[cis-3-hydroxy-3-[(2-oxo-1(2h)-quinolinyl)methyl]cyclohex-yl]-3-(2-methyl-4-pyridinyl)-1H-indazole-5-carboxamide]: the IC50 stood at 0.165 µM.

The compound `Cc1cc(-c2n[nH]c3ccc(C(=O)NC4CCCC(Oc5ccccc5Cl)C4)cc23)ccn1` (single isomer, unassigned) [compound 35, N-[3-(2-chlorophenoxy)cyclohexyl]-3-(2-methyl-4-pyridinyl)-1H-indazole-5-carboxamide] gave a half-maximal inhibitory concentration (IC50) of 0.192 µM. `Cc1cc(-c2n[nH]c3ccc(C(=O)NC4CCCC(Cn5c(C)nc6cnccc65)C4)cc23)ccn1` (stereo not shown) [compound 116, N-[3-[(2-methyl-1H-imidazo[4,5-c]pyridiN-1-yl)methyl]cyclohexyl]-3-(2-methyl-4-pyridinyl)-1H-indazole-5-carboxamide] returned an IC50 of 1 µM.

As to `Cc1cc(-c2n[nH]c3ccc(C(=O)NC4CCCC(O)(C(O)c5ccccc5)C4)cc23)ccn1` (stereo not shown) [compound 49, N-[3-hydroxy-3-(hydroxyphenylmethyl)cyclohex-yl]-3-(2-methyl-4-pyridinyl)-1H-indazole-5-carboxamide (diasterimer 1)], inhibition was half-maximal at 0.025 µM (IC50).
